Experimental data from patent US10889546B2, “Alkynyl pyridine prolyl hydroxylase inhibitor, and preparation method and medical use thereof” (Jiangsu Hengrui Medicine Co., Ltd., priority 2015, dated 2021).
Like-named read-outs stand apart in the source and are kept apart here.

How the values were obtained:
VEGF [1] = experiment: VEGF expression at the cellular level (VEGF kit); assay type: cell-based; settings: Hep3B human hepatoma cell, 24 h after administration
Method: (§1) The test of the activity of some compounds of the present invention on VEGF at the cellular level and EPO at the cellular level is shown as follows. The method is in accordance with Bioorganic & Medicinal Chemistry Letters 23 (2013) 5953-5957, and the test was carried out by using VEGF and EPO kit respectively 24 h after administration.
(§2) Hep3B Cell: Human Hepatoma Cell

HIF-α = experiment: Western-blot test of HIF-α level in cells; assay type: cell-based, human; settings: Hep3B cell, 50 μM, 250 μM, 24 hours after administration
Method: At the same time, Western-blot test at the cellular level was also carried out for some of the compounds of the present invention.
FIG. 1 is the results of Western-blot test of some compounds at the cellular level (Hep3B cell: human hepatoma cell; the compound concentration: 50 μM, 250 μM, 24 hours after administration)

EPO [2] = experiment: EPO expression at the cellular level (EPO kit); assay type: cell-based; settings: Hep3B human hepatoma cell, 24 h after administration
Method: as §1, §2

VEGF [3] = experiment: VEGF level at the animal level (VEGF kit); assay type: in vivo; settings: C57Bl/6 mice, male, 8-9 weeks old; 50 μM; 24 h / 4 h after administration
Method: (§3) The test of the activity of some compounds of the present invention on VEGF at the animal level and EPO at the cellular level is shown as follows. The method is in accordance with Journal of Medicinal Chemistry 55 (2012) 2945-2959, and the test was carried out by using VEGF and EPO kit respectively 4 h after administration.

EPO [4] = experiment: EPO level at the animal level (EPO kit); assay type: in vivo; settings: C57Bl/6 mice, male, 8-9 weeks old; 50 μM; 24 h / 4 h after administration
Method: as §3

Prolyl hydroxylase 2 = Prolyl hydroxylase 2 (Homo sapiens (Human), UniProt Q9GZT9); experiment: Prolyl hydroxylase 2 inhibition, fluorescence polarization method; assay type: biochemical
Sequence of Prolyl hydroxylase 2 (Q9GZT9 whole entry): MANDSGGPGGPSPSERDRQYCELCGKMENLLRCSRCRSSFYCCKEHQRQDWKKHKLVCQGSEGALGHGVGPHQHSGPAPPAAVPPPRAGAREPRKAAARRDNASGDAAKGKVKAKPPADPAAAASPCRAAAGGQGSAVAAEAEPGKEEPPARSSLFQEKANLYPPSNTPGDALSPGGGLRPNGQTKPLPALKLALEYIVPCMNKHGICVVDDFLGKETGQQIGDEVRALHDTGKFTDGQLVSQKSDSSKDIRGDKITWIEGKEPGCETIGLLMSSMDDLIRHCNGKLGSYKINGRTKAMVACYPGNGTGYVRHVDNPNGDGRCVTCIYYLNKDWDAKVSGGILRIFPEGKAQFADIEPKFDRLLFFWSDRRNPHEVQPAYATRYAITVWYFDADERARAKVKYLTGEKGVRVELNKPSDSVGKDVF

[5] = fluorescence polarization, read 1 h after adding the drugs, read-out: Prolyl hydroxylase 2 (IC50 nM)

Compound	Whether it can increase the expression of VEGF in cells (VEGF [1])	Whether it can increase the level of HIF-α in cells (HIF-α)	Whether it can increase the expression of EPO in cells (EPO [2])	increased level of VEGF at the animal level (FIG. 2) (VEGF [3])	increased level of EPO at the animal level (FIG. 2) (EPO [4])	IC50 (Prolyl hydroxylase 2; Table 2 comparison, same test method, same batch, read-out: Prolyl hydroxylase 2 (IC50 nM), example compounds of the present invention)	IC50 (Prolyl hydroxylase 2; [5])
Cc1cccc(C#Cc2cnc(C(=O)NCC(=O)O)c(O)c2)c1 [Example 14, 2-(3-Hydroxy-5-m-methylphenylethynyl)picolinamido acetic acid]	Yes	Yes	Yes	increased level	increased level	–	–
O=C(O)CNC(=O)c1ncc(C#Cc2ccc(F)cc2)cc1O [Example 15, 2-(3-Hydroxy-5-p-fluorophenylethynyl)picolinamido acetic acid]	Yes	Yes	Yes	increased level	increased level	–	–
O=C(O)CNC(=O)c1ncc(C#CCOc2ccc(Cl)cc2)cc1O [Example 44, 2-(3-Hydroxy-5-(3-p-chlorophenoxypropyn-1-yl))picolinamido acetic acid]	Yes	Yes	Yes	–	–	13.7 ± 1.1 nM	13.7 ± 1.1 nM
O=C(O)CNC(=O)c1ncc(C#CCOc2ccc(F)cc2)cc1O [Example 47, 2-(3-Hydroxy-5-(3-p-fluorophenoxypropyn-1-yl))picolinamido acetic acid]	Yes	–	Yes	increased level	increased level	–	187 ± 8.3 nM
Cc1nc(C(=O)NCC(=O)O)c(O)c2ccc(Oc3ccccc3)cc12 [FG-4592, reference compound]	Yes	–	Yes	increased level	increased level	–	–
